Test results from PubChem BioAssay (NCI).
Several values for one entry are separate records, joined by “and”; a condition that tells them apart may be missing. Identical values can stand only once.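 Compound exposure: 48 hours, 5 concentrations, 96-well plates. GI50 marks 50% less growth. TGI marks complete inhibition of growth.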

Tests used:
MDA-MB-231 breast = experiment: DTP human tumour cell line panel, 48 h
MDA-MB-435 = experiment: DTP human tumour cell line panel, 48 h

`C[C@@H]1N=C(c2ccc(Br)cc2)Nc2nc3ccccn3c2C1=O` gave a GI50 (MDA-MB-231 breast) of 6.08 µM, a TGI (MDA-MB-231 breast) of over 100 µM and a GI50 (MDA-MB-435) of 1.33 µM. It also gave a TGI (MDA-MB-435) of 7.1 µM.

With `O=c1[nH]ccc2nc(N3CCC(O)CC3)nc(Nc3cccc(C(F)(F)F)c3)c12` the GI50 (MDA-MB-231 breast) was 12.2 µM, the TGI (MDA-MB-231 breast) was over 100 µM and the GI50 (MDA-MB-435) was 1.29 µM. It also gave a TGI (MDA-MB-435) of 3.55 µM.

In the case of `Nc1cc(-c2cccc(OC(F)(F)F)c2)nc2ccc(N3CCCC3)cc12`, the GI50 (MDA-MB-231 breast) is reported as 0.0385 µM and 0.0353 µM and 0.0356 µM, the TGI (MDA-MB-231 breast) is reported as 7.26 µM and > 38.6 µM and 56.9 µM and the GI50 (MDA-MB-435) is reported as under 0.0105 µM. For the same compound, the TGI (MDA-MB-435) was 0.0455 µM and 0.0346 µM and 0.034 µM.

`c1cc(OCCN2CCCCC2)ccc1CNc1ccc2nc(CCC3CCCCC3)[nH]c2c1` gave a GI50 (MDA-MB-231 breast) of 1.58 µM, a TGI (MDA-MB-231 breast) of 3.02 µM and a GI50 (MDA-MB-435) of 1.63 µM. It also gave a TGI (MDA-MB-435) of 3.09 µM.

Work on `COc1ccc2c(CN3CCC[C@H]3C(=O)O)cc3cc4c(cc3c2c1)OCO4` yielded a GI50 (MDA-MB-231 breast) of 23.5 µM, a TGI (MDA-MB-231 breast) of over 100 µM and a GI50 (MDA-MB-435) of 14.7 µM. The TGI (MDA-MB-435) was 30.4 µM.

For `CN(C)C1CCN(C(=O)c2ccc(NC(=O)Nc3ccc(-c4nc(N5CCOCC5)nc(N5CCOCC5)n4)cc3)cc2)CC1`, the GI50 (MDA-MB-231 breast) was < 0.0115 µM and 0.0128 µM and 0.0168 µM, the TGI (MDA-MB-231 breast) was 1.71 µM and 2.5 µM and 0.286 µM and the GI50 (MDA-MB-435) was 0.0148 µM and 0.013 µM and 0.0221 µM. For the same compound, the TGI (MDA-MB-435) was 0.133 µM and 0.284 µM and 0.324 µM.

Compound `C=C[C@H]1CCC/C=C/[C@@H]2C[C@H](O)C[C@H]2[C@H](O)/C=C/C(=O)O1` has a GI50 (MDA-MB-231 breast) of 0.0201 µM, a TGI (MDA-MB-231 breast) of 0.0403 µM and a GI50 (MDA-MB-435) of 0.043 µM. The TGI (MDA-MB-435) was over 100 µM.

In the case of `COc1cc2c(cc1OCCCCCCN1CCN(c3ncnc4ccccc34)CC1)N=CC1CCCN1C2=O` (configuration not stated), the GI50 (MDA-MB-231 breast) is reported as 0.0425 µM, the TGI (MDA-MB-231 breast) is reported as 0.394 µM and the GI50 (MDA-MB-435) is reported as 0.0905 µM. For the same compound, the TGI (MDA-MB-435) was 0.252 µM.

For `COc1cc2c(Oc3ccc4[nH]c(C)cc4c3F)ccnc2cc1OCC1(N)CC1`, the GI50 (MDA-MB-231 breast) was 1.8 µM, the TGI (MDA-MB-231 breast) was 4.61 µM and the GI50 (MDA-MB-435) was 0.31 µM. For the same compound, the TGI (MDA-MB-435) was 1.21 µM.

With `COc1ccc(-c2ccc(/C=N/n3c(COc4ccc(Cl)cc4Cl)nn(CN4CCN(C)CC4)c3=S)o2)c([N+](=O)[O-])c1` the GI50 (MDA-MB-231 breast) was 28.9 µM, the TGI (MDA-MB-231 breast) was over 100 µM and the GI50 (MDA-MB-435) was 15.9 µM. It also gave a TGI (MDA-MB-435) of 37.5 µM.

`C=CCN(CC=C)C(=O)c1cc(C)nc2c1c(=O)n(-c1ccccc1)c(=O)n2CC(O)CN1CCN(c2ncccn2)CC1` (configuration not stated) gave a GI50 (MDA-MB-231 breast) of over 100 µM, a TGI (MDA-MB-231 breast) of over 100 µM and a GI50 (MDA-MB-435) of over 100 µM. The TGI (MDA-MB-435) was over 100 µM.

`O=C([O][Hg][CH2]C1COCC([CH2][Hg][O]C(=O)c2ccccc2)O1)c1ccccc1` (configuration not stated) gave a GI50 (MDA-MB-231 breast) of 19.4 µM, a TGI (MDA-MB-231 breast) of 45.6 µM and a GI50 (MDA-MB-435) of 14.2 µM. For the same compound, the TGI (MDA-MB-435) was 30.9 µM.

Work on `COc1ccc(C2=C(c3ccc(OC)c(OC)c3)C(=O)OC2)cc1` yielded a GI50 (MDA-MB-231 breast) of 0.682 µM and a GI50 (MDA-MB-435) of under 0.0463 µM.

For `O=C(Nc1ccc(F)cc1F)c1cc(Br)ccc1O`, the GI50 (MDA-MB-231 breast) was 2.26 µM, the TGI (MDA-MB-231 breast) was 7.95 µM and the GI50 (MDA-MB-435) was 2.82 µM. The TGI (MDA-MB-435) was 11.9 µM.

`CC1(C)CC(n2cnc(-c3ccc(F)cc3)c2-c2ccnc(N)n2)CC(C)(C)N1` showed a GI50 (MDA-MB-231 breast) of over 22.7 µM, a TGI (MDA-MB-231 breast) of over 25 µM and a GI50 (MDA-MB-435) of over 25 µM. It also gave a TGI (MDA-MB-435) of over 25 µM.

With `NC(=N\N=C/c1cccc([N+](=O)[O-])c1)/C(N)=N\N=C/c1cccc([N+](=O)[O-])c1` the GI50 (MDA-MB-231 breast) was over 100 µM, the TGI (MDA-MB-231 breast) was over 100 µM and the GI50 (MDA-MB-435) was over 100 µM. The TGI (MDA-MB-435) was over 100 µM.

`Cc1cc(-c2nnc(N)nc2-c2ccc(F)cc2)cc(Cl)n1` showed a GI50 (MDA-MB-231 breast) of 70.2 µM, a TGI (MDA-MB-231 breast) of over 100 µM and a GI50 (MDA-MB-435) of over 100 µM. For the same compound, the TGI (MDA-MB-435) was over 100 µM.

`C=CCN1C=CC(=O)[C@H](O[Si](C)(C)C(C)(C)C)[C@@H]1/C=C/c1ccccc1` was tested, and the GI50 (MDA-MB-231 breast) was 14.6 µM, the TGI (MDA-MB-231 breast) was 29.8 µM and the GI50 (MDA-MB-435) was 12.3 µM. For the same compound, the TGI (MDA-MB-435) was 30.6 µM.

In the case of `CC[Si](CC)(CC)OC[C@]1([C@@H]2COC(C)(C)O2)CC=CC(=O)O1`, the GI50 (MDA-MB-231 breast) is reported as 51.1 µM, the TGI (MDA-MB-231 breast) is reported as over 100 µM and the GI50 (MDA-MB-435) is reported as 36.4 µM. The TGI (MDA-MB-435) was over 100 µM.

In the case of `NC(=O)c1ccc2c(-c3ccnc(NCCCO)n3)c(-c3ccc(F)cc3)nn2c1`, the GI50 (MDA-MB-231 breast) is reported as over 25 µM, the TGI (MDA-MB-231 breast) is reported as over 25 µM and the GI50 (MDA-MB-435) is reported as over 18.3 µM. The TGI (MDA-MB-435) was over 25 µM.

`COc1ccc2c(c1)OC1=C(C(=O)OC1)C2c1cc(OC)c(OC)c(OC)c1` (configuration not stated) gave a GI50 (MDA-MB-231 breast) of 1.3 µM, a TGI (MDA-MB-231 breast) of over 100 µM and a GI50 (MDA-MB-435) of 0.104 µM. For the same compound, the TGI (MDA-MB-435) was 0.358 µM.

For `CC(C)CNc1nc(-c2ccccc2)nc2ccccc12`, the GI50 (MDA-MB-435) was 18.5 µM and the TGI (MDA-MB-435) was 37.9 µM.

`CCN=c1cc2sc3cc(NCC)c(C)cc3nc-2cc1C` was tested, and the GI50 (MDA-MB-231 breast) was 0.334 µM, the TGI (MDA-MB-231 breast) was 11.1 µM and the GI50 (MDA-MB-435) was 1.55 µM. For the same compound, the TGI (MDA-MB-435) was 4.33 µM.

In the case of `O=C(N/N=C/c1ccccc1Cl)c1ccccc1Nc1ccnc(C(F)(F)F)c1`, the GI50 (MDA-MB-231 breast) is reported as 1.93 µM, the TGI (MDA-MB-231 breast) is reported as 6.94 µM and the GI50 (MDA-MB-435) is reported as 1.71 µM. For the same compound, the TGI (MDA-MB-435) was 6.81 µM.

`COC(=O)c1c2c(c(C)[n+]([O-])c1C)C(=O)C=C(NCc1ccc(OC)cc1)C2=O` was tested, and the GI50 (MDA-MB-231 breast) was 0.959 µM, the TGI (MDA-MB-231 breast) was 5.41 µM and the GI50 (MDA-MB-435) was 0.598 µM. For the same compound, the TGI (MDA-MB-435) was 1.15 µM.

Compound `CCOc1ccc(Nc2nc(-c3ccc4c(c3)NC(=O)CO4)cs2)cc1` has a GI50 (MDA-MB-231 breast) of 21.1 µM, a TGI (MDA-MB-231 breast) of over 100 µM and a GI50 (MDA-MB-435) of 2.95 µM. The TGI (MDA-MB-435) was 11.3 µM.

`O=CN1N=C(c2ccc(Cl)cc2)CC1c1cccc(Nc2ccnc3cc(Cl)ccc23)c1` (configuration not stated) was tested, and the GI50 (MDA-MB-231 breast) was 2.74 µM, the TGI (MDA-MB-231 breast) was 39.2 µM and the GI50 (MDA-MB-435) was 0.377 µM. It also gave a TGI (MDA-MB-435) of 17.2 µM.

`CCCN1CCN(c2ccc3nc(-c4ccc5nc(-c6cc(OC)ccc6OC)[nH]c5c4)[nH]c3c2)CC1` showed a GI50 (MDA-MB-231 breast) of 1.74 µM, a TGI (MDA-MB-231 breast) of 3.27 µM and a GI50 (MDA-MB-435) of 1.79 µM. For the same compound, the TGI (MDA-MB-435) was 3.24 µM.

Compound `COc1ccc(CNc2c3ccccc3nc3ccc(OC)cc23)cc1` has a GI50 (MDA-MB-231 breast) of 1.9 µM, a TGI (MDA-MB-231 breast) of 4.69 µM and a GI50 (MDA-MB-435) of 1.99 µM. For the same compound, the TGI (MDA-MB-435) was 6.32 µM.
